The results in this text go back to patent US5364861A, “Optical isomers of 7-[3-(1,1-dialkylmethyl-1-amino-1-pyrrolidinyl]-quinolones and naphthyridones as antibacterial agents” (Warner-Lambert Company, priority 1993, dated 1994).

The subject of one series is Strep. pneumoniae SV-1. Kind of series: in vitro antibacterial activity, microtitration dilution (MIC), Strep. pneumoniae SV-1. The class given is cell-based. The conditions noted are these: Streptococcus pneumoniae, SV1, read-out: minimum inhibiting concentration (MIC). An excerpt: (§1) The in vitro antibacterial activity is obtained when tested by the microtitration dilution method as described in Heifetz, et al., Antimicr. Agents & Chemother. 1974;6:124, which is incorporated herein by reference.
(§2) By use of the above methods, the following minimum inhibiting concentration values (MICs in μg/ml), PD50 's in mg/kg, no effect phototoxicity dose in mg/kg and the cytotoxicity IC50 in μg/mL were obtained for representative enantiomers of the invention and compounds of the prior art as shown in the table.

Series [1] has as its system Strep. pyogenes C-203. As to the kind of experiment: median protective dose in mice given lethal systemic infection, Strep. pyogenes. The class given is in vivo. Conditions: Streptococcus pyogenes, C203, Strep. pyogenes, single dose at time of challenge, route not given, read-out: median protective dose (PD50). The procedure: (§3) The in vivo activity is obtained when the compounds are tested according to the procedure of Miller, et al (Proc. Soc. Exp. Biol. Med. 1944;57:261). The median protective dose (PD50) was determined in mice given lethal systemic infections. Single doses of compound were given at time of challenge.
as §2
(§4) The in vivo data as PD50 's are reported below the line of MICs for the same compound.

The test system of series [2] is Pseud. aeruginosa UI-18. As to the kind of experiment: in vitro antibacterial activity, microtitration dilution (MIC), Pseud. aeruginosa UI-18. The class given is cell-based. The conditions noted are these: Pseudomonas aeruginosa, UI18, read-out: minimum inhibiting concentration (MIC).
Excerpt: as §1, §2

Another series concerns Prot. rettgeri M 1771. As to the kind of experiment: in vitro antibacterial activity, microtitration dilution (MIC), Prot. rettgeri M 1771. Format: cell-based. Conditions: Providencia rettgeri, M1771, read-out: minimum inhibiting concentration (MIC).
Excerpt: as §1, §2

For another series, the system named is Klebs. pneumoniae MGH-2. Kind of series: in vitro antibacterial activity, microtitration dilution (MIC), Klebs. pneumoniae MGH-2. Format: cell-based. Conditions: Klebsiella pneumoniae, MGH2, read-out: minimum inhibiting concentration (MIC).
Excerpt: as §1, §2

For series [3], the system named is Strep. pyogenes C-203. As to the kind of experiment: in vitro antibacterial activity, microtitration dilution (MIC), Strep. pyogenes C-203. Format: cell-based. Conditions: Streptococcus pyogenes, C203, read-out: minimum inhibiting concentration (MIC).
Excerpt: as §1, §2

The test system of another series is Ent. cloacae MA2646. Kind of series: in vitro antibacterial activity, microtitration dilution (MIC), Ent. cloacae MA2646. The class given is cell-based. The conditions noted are these: Enterobacter cloacae, read-out: minimum inhibiting concentration (MIC).
Excerpt: as §1, §2

For the next series, the system named is Strep. faecalis MGH-2. Kind of series: in vitro antibacterial activity, microtitration dilution (MIC), Strep. faecalis MGH-2. Format: cell-based. The conditions noted are these: Enterococcus faecalis, MGH2, read-out: minimum inhibiting concentration (MIC).
Excerpt: as §1, §2

Series [4] has as its system Esch. coli Vogel. As to the kind of experiment: median protective dose in mice given lethal systemic infection, Esch. coli. Format: in vivo. The conditions noted are these: Escherichia coli, single dose at time of challenge, route not given, read-out: median protective dose (PD50). The procedure:
as §3, §2, §4

The next series relates to Staph. aureus UC-76. Kind of series: in vitro antibacterial activity, microtitration dilution (MIC), Staph. aureus UC-76. The class given is cell-based. Conditions: Staphylococcus aureus, UC76, read-out: minimum inhibiting concentration (MIC).
Excerpt: as §1, §2

Another series concerns Staph. aureus H 228. Kind of series: in vitro antibacterial activity, microtitration dilution (MIC), Staph. aureus H 228. Format: cell-based. Conditions: Staphylococcus aureus, H228, read-out: minimum inhibiting concentration (MIC).
Excerpt: as §1, §2

Series [5] relates to Esch. coli Vogel. As to the kind of experiment: in vitro antibacterial activity, microtitration dilution (MIC), Esch. coli Vogel. The class given is cell-based. Conditions: Escherichia coli, read-out: minimum inhibiting concentration (MIC).
Excerpt: as §1, §2

Series [6] deals with Pseud. aeruginosa UI-18. As to the kind of experiment: median protective dose in mice given lethal systemic infection, Pseud. aeruginosa. The class given is in vivo. Conditions: Pseudomonas aeruginosa, UI18, Pseud. aeruginosa, single dose at time of challenge, route not given, read-out: median protective dose (PD50). The protocol: as §3, §2, §4
Series [7] is described as follows: cytotoxicity, colony reduction of hamster V-79 cells. The class given is cell-based. The conditions noted are these: 3 hours treatment, colonies counted after 5 days, read-out: cytotoxicity IC50 (Cytotox). The procedure: The cytotoxicity data is obtained using hamster V-79 cells. The cells were suspended in tissue culture medium and grown overnight. Cells were treated with drug for 3 hours, washed free of drug and then replated, and the colonies counted after 5 days. The concentration of drug that reduced colonies by 50% relative to control was recorded.
as §2

In brackets after ≈: the same amount, converted by molar mass. Counter-ions that a name gives are not always drawn. Like-named read-outs stand apart in the source and are kept apart here.

`CC(C)(N)[C@H]1CCN(c2c(F)cc3c(=O)c(C(=O)O)cn(C4CC4)c3c2Cl)C1` [Example 1, (S)-7-[3-(1-Amino-1-methylethyl)-1-pyrrolidinyl]-8-chloro-1-cyclopropyl-6-fluoro-1,4-dihydro-4-oxo-3-quinolinecarboxylic acid, monohydrochloride]: the MIC in the series on Strep. pneumoniae SV-1 amounted to 0.013 µg/mL; with Pseud. aeruginosa UI-18 [2], 1.6 µg/mL; in the series on Prot. rettgeri M 1771 it was 0.4 µg/mL; in the series with Klebs. pneumoniae MGH-2, 0.2 µg/mL; in the series on Strep. pyogenes C-203 [3], 0.025 µg/mL; in the series on Ent. cloacae MA2646 it was 0.1 µg/mL. Moreover, the MIC in the series on Strep. faecalis MGH-2 was determined as 0.05 µg/mL; with Staph. aureus UC-76 it was 0.013 µg/mL; with Staph. aureus H 228, 0.025 µg/mL; in the series on Esch. coli Vogel [5] it was 0.1 µg/mL. Also, the ED50 was 13 mg/kg in the series with Strep. pyogenes C-203 [1] (first line below the MICs), 4 mg/kg with Strep. pyogenes C-203 [1] (second line below the MICs), 27 mg/kg with Esch. coli Vogel [4] (first line below the MICs) and 4 mg/kg with Esch. coli Vogel [4] (second line below the MICs).
Consider `CC(C)(N)[C@@H]1CCN(c2c(F)cc3c(=O)c(C(=O)O)cn(C4CC4)c3c2Cl)C1` [Example 2, (R)-7-[3-(1-Amino-1-methylethyl-1-pyrrolidinyl]-8-chloro-1-cyclopropyl-6-fluoro-1,4-dihydro-4-oxo-3-quinolinecarboxylic acid, monohydrochloride], for which the MIC in the series on Strep. pneumoniae SV-1 was no more than 0.003 µg/mL; with Pseud. aeruginosa UI-18 [2], 0.8 µg/mL; with Prot. rettgeri M 1771, 0.2 µg/mL; in the series on Klebs. pneumoniae MGH-2 it was 0.1 µg/mL; with Strep. pyogenes C-203 [3] it was no more than 0.003 µg/mL; in the series on Ent. cloacae MA2646, 0.05 µg/mL. The MIC with Strep. faecalis MGH-2 is 0.013 µg/mL; in the series with Staph. aureus UC-76 it was no more than 0.003 µg/mL; with Staph. aureus H 228, 0.006 µg/mL; in the series on Esch. coli Vogel [5], 0.05 µg/mL. Besides, the ED50 was 2 mg/kg with Strep. pyogenes C-203 [1] (first line below the MICs); 0.14 mg/kg with Strep. pyogenes C-203 [1] (second line below the MICs); 100 mg/kg in the series with Pseud. aeruginosa UI-18 [6] (first line below the MICs); 17 mg/kg in the series on Pseud. aeruginosa UI-18 [6] (second line below the MICs); 8 mg/kg in the series with Esch. coli Vogel [4] (first line below the MICs); 1 mg/kg in the series with Esch. coli Vogel [4] (second line below the MICs). Besides, the CC50 at 3 h in [7] stood at 8 µg/mL.
Regarding `CNC(C)(C)[C@@H]1CCN(c2c(F)cc3c(=O)c(C(=O)O)cn(C4CC4)c3c2Cl)C1` [Example 6, (R)-08-Chloro-1-cyclopropyl-6-fluoro-1,4-dihydro-7-{3-[1-methyl-1-(methylamino)ethyl]-1-pyrrolidinyl}-4-oxo-3-quinolinecarboxylic acid, monohydrochloride], the MIC with Strep. pneumoniae SV-1 was no more than 0.003 µg/mL; in the series with Pseud. aeruginosa UI-18 [2], 3.1 µg/mL; in the series with Prot. rettgeri M 1771, 0.4 µg/mL; in the series on Klebs. pneumoniae MGH-2, 0.4 µg/mL; with Strep. pyogenes C-203 [3], no more than 0.003 µg/mL; with Ent. cloacae MA2646, 0.2 µg/mL. The MIC was 0.025 µg/mL with Strep. faecalis MGH-2, no more than 0.003 µg/mL with Staph. aureus UC-76, 0.013 µg/mL with Staph. aureus H 228 and 0.2 µg/mL in the series on Esch. coli Vogel [5]. For the same compound, the ED50 in the series with Strep. pyogenes C-203 [1] (first line below the MICs) was 3 mg/kg; in the series on Strep. pyogenes C-203 [1] (second line below the MICs) it was 0.5 mg/kg; with Esch. coli Vogel [4] (first line below the MICs), 11 mg/kg; in the series on Esch. coli Vogel [4] (second line below the MICs) it was 2 mg/kg.
For `COc1c(N2CC[C@@H](C(C)(C)N)C2)c(F)cc2c(=O)c(C(=O)O)cn(C3CC3)c12` [Example 7, (R)-7-[3-(1-Amino-1-methylethyl)-1-pyrrolidinyl]-1-cyclopropyl-6-fluoro-1,4-dihydro-8-methoxy-4-oxo-3-quinolinecarboxylic acid], the MIC with Strep. pneumoniae SV-1 was no more than 0.003 µg/mL; in the series with Pseud. aeruginosa UI-18 [2], 1.6 µg/mL (≈ 3.97 µM); in the series on Prot. rettgeri M 1771, 0.4 µg/mL (≈ 0.991 µM); in the series on Klebs. pneumoniae MGH-2 it was 0.2 µg/mL (≈ 0.496 µM); in the series with Strep. pyogenes C-203 [3], less than 0.003 µg/mL; in the series with Ent. cloacae MA2646, 0.1 µg/mL (≈ 0.248 µM). The MIC was 0.013 µg/mL (≈ 0.0322 µM) in the series on Strep. faecalis MGH-2, no more than 0.003 µg/mL in the series with Staph. aureus UC-76, 0.013 µg/mL (≈ 0.0322 µM) in the series with Staph. aureus H 228 and 0.1 µg/mL (≈ 0.248 µM) with Esch. coli Vogel [5]. Further, the ED50 with Strep. pyogenes C-203 [1] (first line below the MICs) came to 3 mg/kg; with Strep. pyogenes C-203 [1] (second line below the MICs), 0.8 mg/kg; with Esch. coli Vogel [4] (first line below the MICs), 26 mg/kg; with Esch. coli Vogel [4] (second line below the MICs), 3 mg/kg. Further, in series [7], the CC50 at 3 h was found to be 18 µg/mL (≈ 44.6 µM).
